Where two headings read alike, the source gives them in different places.
Test: CARIV-A-001 Part B: cross-over IV infusion over 2 hours vs oral tablet 100 mg/kg in healthy subjects
Assay type: in vivo, human
Parameters: CL, Max / CL, Min: unit not given here
Conditions: for HL (Half-life), Max / HL (Half-life), Min: in h; for AUCinf, Max / AUCinf, Min / aucL, Max / aucL, Min: in ng·h/mL
Procedure: The levels of CGA in plasma and urine were analysed using a fully validated method, which included LC-MS/MS analysis. The PK data were analysed based on a non-compartmental model. A model-based approach was implemented for the characterization of the PK properties of the IV formulation in order to estimate the level of PK exposure after different doses administered with different duration of infusion. The model outcomes provided rationales for supporting decision-making through the dose escalation process. The PK parameters were determined using SAS (version 9.3), and modelling of the PK data was performed using NONMEM (version 7.3, ICON Solutions). PART A: Mono-Centre, Randomized, Successive Groups, Double-Blind, Placebo-Controlled Study in Healthy Male and Female Subjects
Part B was a randomized, double-blind, cross-over, two-sequence study. It was conducted in 12 healthy male and female subjects.
In two treatment periods, separated by a washout of at least two weeks, subjects received a single administration of the study medication in fasting conditions, either as an IV loading dose infusion of Rec0/0491 over 2 hours (started with 6 mg/kg/h then reduced to 4.0 mg/kg/h), or an oral tablet administration of Carbaglu® (100 mg/kg).
Blood samples for PK measurements were collected at 19 timepoints for the IV administration and 17 timepoints for the oral administration. This included a sample prior to intake of the study medication and the period ranging from 20 minutes to 72 hours following the initiation of the IV infusion, and the period ranging from 30 minutes to 72 hours following oral intake. Urine was also collected for PK measurements, at the following intervals relative to the time of administration of the study medication: 0-6, 6-12, 12-24, 24-36 and 36-48 hours.
The PK analysis of Carbaglu was conducted on all subjects showing quantifiable plasma levels using standard non-compartmental approach.

Structure (SMILES): NC(=O)N[C@@H](CCC(=O)O)C(=O)O [carglumic acid, N-carbamoyl-L-glutamic acid]
- Absolute bioavailability F of the oral vs IV formulation, GeoMean (12 subjects): 9.57%
- Equivalence of exposure, oral tablet 100 mg/kg vs IV infusion over 2 hours (90% confidence limits vs reference limits of 0.8 and 1.25): non-equivalent level of exposure
- CL, Max (IV, 8 mg/kg, N 10): 0.472
- CL, Min (IV, 8 mg/kg, N 10): 0.225
- Cmax, Max (IV, 8 mg/kg, N 10): 11700 ng/mL
- Cmax, Min (IV, 8 mg/kg, N 10): 5400 ng/mL
- HL (Half-life), Max (IV, 8 mg/kg, N 10): 52.95
- HL (Half-life), Min (IV, 8 mg/kg, N 10): 22.85
- AUCinf, Max (IV, 8 mg/kg, N 10): 35564.90
- AUCinf, Min (IV, 8 mg/kg, N 10): 16949.96
- aucL, Max (IV, 8 mg/kg, N 10): 34579.31
- aucL, Min (IV, 8 mg/kg, N 10): 15713.03
- CL, Max (IV, 12 mg/kg, N 2): 0.267
- CL, Min (IV, 12 mg/kg, N 2): 0.192
- Cmax, Max (IV, 12 mg/kg, N 2): 23500 ng/mL
- Cmax, Min (IV, 12 mg/kg, N 2): 19400 ng/mL
- HL (Half-life), Max (IV, 12 mg/kg, N 2): 42.59
- HL (Half-life), Min (IV, 12 mg/kg, N 2): 27.23
- AUCinf, Max (IV, 12 mg/kg, N 2): 62628.03
- AUCinf, Min (IV, 12 mg/kg, N 2): 45001.41
- aucL, Max (IV, 12 mg/kg, N 2): 61017.40
- aucL, Min (IV, 12 mg/kg, N 2): 43281.03
- Cmax, Max (OR, 100 mg/kg, N 12): 5620 ng/mL
- Cmax, Min (OR, 100 mg/kg, N 12): 1950 ng/mL
- HL (Half-life), Max (OR, 100 mg/kg, N 12): 35.31
- HL (Half-life), Min (OR, 100 mg/kg, N 12): 17.56
- AUCinf, Max (OR, 100 mg/kg, N 12): 45696.37
- AUCinf, Min (OR, 100 mg/kg, N 12): 21852.27
- aucL, Max (OR, 100 mg/kg, N 12): 44250.17
- aucL, Min (OR, 100 mg/kg, N 12): 20030.59
- Percent of dose excreted in urine (after IV administration): 82%
- Percent of dose excreted in urine (after oral administration): 7.5%
- CL renal (both sexes, human, plasma and urine, after IV administration, read-out: Renal clearance (converted)): ~5 mL/min/kg
- AUC(0-inf) (both sexes, human, plasma, iv, 8 mg/kg, IV, 8 mg/kg, N 10, read-out: AUCinf, Mean): 24500 ng·h/mL
- AUC(0-inf) (both sexes, human, plasma, iv, 8 mg/kg, IV, 8 mg/kg, N 10, read-out: AUCinf, Median): 23700 ng·h/mL
- clearance (both sexes, human, plasma, iv, 8 mg/kg, IV, 8 mg/kg, N 10, read-out: CL, Mean (converted)): 5.65 mL/min/kg
- clearance (both sexes, human, plasma, iv, 8 mg/kg, IV, 8 mg/kg, N 10, read-out: CL, Median (converted)): 5.63 mL/min/kg
- Cmax (both sexes, human, plasma, iv, 8 mg/kg, IV, 8 mg/kg, N 10, read-out: Cmax, Mean): 8610 ng/mL
- Cmax (both sexes, human, plasma, iv, 8 mg/kg, IV, 8 mg/kg, N 10, read-out: Cmax, Median): 8760 ng/mL
- half-life (both sexes, human, plasma, iv, 8 mg/kg, IV, 8 mg/kg, N 10, read-out: HL (Half-life), Mean (converted)): 30.6 h
- half-life (both sexes, human, plasma, iv, 8 mg/kg, IV, 8 mg/kg, N 10, read-out: HL (Half-life), Median (converted)): 28.8 h
- AUC(0-inf) (both sexes, human, plasma, iv, 12 mg/kg, IV, 12 mg/kg, N 2, read-out: AUCinf, Mean): 53800 ng·h/mL
- AUC(0-inf) (both sexes, human, plasma, iv, 12 mg/kg, IV, 12 mg/kg, N 2, read-out: AUCinf, Median): 53800 ng·h/mL
- clearance (both sexes, human, plasma, iv, 12 mg/kg, IV, 12 mg/kg, N 2, read-out: CL, Mean (converted)): 3.82 mL/min/kg
- clearance (both sexes, human, plasma, iv, 12 mg/kg, IV, 12 mg/kg, N 2, read-out: CL, Median (converted)): 3.82 mL/min/kg
- Cmax (both sexes, human, plasma, iv, 12 mg/kg, IV, 12 mg/kg, N 2, read-out: Cmax, Mean): 21400 ng/mL
- Cmax (both sexes, human, plasma, iv, 12 mg/kg, IV, 12 mg/kg, N 2, read-out: Cmax, Median): 21400 ng/mL
- half-life (both sexes, human, plasma, iv, 12 mg/kg, IV, 12 mg/kg, N 2, read-out: HL (Half-life), Mean (converted)): 34.9 h
- half-life (both sexes, human, plasma, iv, 12 mg/kg, IV, 12 mg/kg, N 2, read-out: HL (Half-life), Median (converted)): 34.9 h
- clearance (both sexes, human, plasma, iv, after IV administration, read-out: Total clearance (converted)): 5.17 mL/min/kg
- AUC(0-inf) (both sexes, human, plasma, oral, 100 mg/kg, OR, 100 mg/kg, N 12, read-out: AUCinf, Mean): 31400 ng·h/mL
- AUC(0-inf) (both sexes, human, plasma, oral, 100 mg/kg, OR, 100 mg/kg, N 12, read-out: AUCinf, Median): 30200 ng·h/mL
- CL/F (both sexes, human, plasma, oral, 100 mg/kg, OR, 100 mg/kg, N 12, read-out: CL/F, Mean (converted)): 55.6 mL/min/kg
- CL/F (both sexes, human, plasma, oral, 100 mg/kg, OR, 100 mg/kg, N 12, read-out: CL/F, Median (converted)): 55.2 mL/min/kg
- Cmax (both sexes, human, plasma, oral, 100 mg/kg, OR, 100 mg/kg, N 12, read-out: Cmax, Mean): 3280 ng/mL
- Cmax (both sexes, human, plasma, oral, 100 mg/kg, OR, 100 mg/kg, N 12, read-out: Cmax, Median): 2940 ng/mL
- half-life (both sexes, human, plasma, oral, 100 mg/kg, OR, 100 mg/kg, N 12, read-out: HL (Half-life), Mean (converted)): 24.6 h
- half-life (both sexes, human, plasma, oral, 100 mg/kg, OR, 100 mg/kg, N 12, read-out: HL (Half-life), Median (converted)): 23.7 h
- bioavailability (both sexes, human, plasma, oral, 100 mg/kg, 12 subjects, read-out: Absolute bioavailability, 90% confidence intervals): 8.3 to 11%
- AUC(0-t) (both sexes, human, plasma, oral, OR, 100 mg/kg, N 12): 29800 ng·h/mL
- AUC (both sexes, human, plasma, oral, OR, 100 mg/kg, N 12, read-out: aucL, Median): 29100 ng·h/mL
- bioavailability (both sexes, human, plasma, po, 100 mg/kg, read-out: Oral bioavailability): ~10%
- AUC(0-t) (both sexes, human, plasma, IV, 8 mg/kg, N 10): 22900 ng·h/mL

Source: patent US20220040129A1, “TREATMENT OF HYPERAMMONEMIA IN PATIENTS WITH RENAL INSUFFICIENCY” (RECORDATI S.p.A., priority 2019, published 2022)
